We go through one compound from ChEMBL document CHEMBL3638470, “Substituted 5,6,7,8-tetrahydro-1,6-naphthyridines as factor XIa inhibitors” (2015).

This test has as its target Coagulation factor XI (Homo sapiens, UniProt P03951). In words: Inhibition Assay: The effectiveness of compounds of the present invention as inhibitors of the coagulation factors XIa, Vila, IXa, Xa, Xlla, plasma kallikrein or thrombin, can be determined using a relevant purified serine protease, respectively, and an appropriate synthetic substrate. The rate of hydrolysis of the chromogenic or fluorogenic substrate by the relevant serine protease was measured both in the absence and presence of compounds of the present invention. […] A decrease in the rate of absorbance or fluorescence change in the presence of inhibitor is indicative of enzyme inhibition. Such methods are known to one skilled in the art.

Sequence of Coagulation factor XI (P03951 19-387 limits assumed): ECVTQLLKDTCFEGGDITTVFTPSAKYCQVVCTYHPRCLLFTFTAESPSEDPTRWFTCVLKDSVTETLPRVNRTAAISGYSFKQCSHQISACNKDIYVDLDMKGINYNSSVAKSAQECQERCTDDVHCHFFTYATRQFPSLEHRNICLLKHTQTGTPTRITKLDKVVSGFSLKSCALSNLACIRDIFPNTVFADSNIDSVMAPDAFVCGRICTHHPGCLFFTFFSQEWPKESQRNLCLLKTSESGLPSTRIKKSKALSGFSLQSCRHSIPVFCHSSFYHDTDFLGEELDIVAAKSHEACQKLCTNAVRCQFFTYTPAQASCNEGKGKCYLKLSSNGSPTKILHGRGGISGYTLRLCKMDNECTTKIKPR
Sequence of Coagulation factor XI (P03951 388-625 limits assumed): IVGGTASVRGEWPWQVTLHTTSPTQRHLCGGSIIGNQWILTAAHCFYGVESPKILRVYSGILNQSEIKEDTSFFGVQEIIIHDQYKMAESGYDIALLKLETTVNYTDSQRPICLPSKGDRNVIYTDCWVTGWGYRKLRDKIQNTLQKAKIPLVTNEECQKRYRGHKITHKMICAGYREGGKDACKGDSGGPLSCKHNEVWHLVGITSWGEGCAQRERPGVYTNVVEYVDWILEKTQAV

Broadly, the Ki is the equilibrium dissociation constant of an inhibitor or competing ligand from its target. In the case of `COC(=O)Nc1cccc(NC(=O)[C@@H]2c3ccccc3CCN2C(=O)/C=C/c2cc(Cl)ccc2-n2cnnn2)c1`, the inhibitory constant (Ki) is 2790 nM.
